Results as given in US5747235A, “Silver halide light sensitive emulsion layer having enhanced photographic sensitivity” (Eastman Kodak Company, priority 1996, dated 1998).

Columns and labels:
Format in all cases: physicochemical
[1] = fragmentation rate constant kfr by laser flash photolysis; details: Table B; CH3CN/H2O (4:1)
Description: The kinetics of the bond cleavage or fragmentation reaction can be measured by conventional laser flash photolysis. […] The specific experimental apparatus we used to measure fragmentation rate constants and radical oxidation potentials is described in detail below.
(b) Fragmentation Rate Constant Determination
These absorptions were used to determine the kinetics of the fragmentation reactions of the radical cations of the X-Y. Excitation of 9,10-dicyanoanthracene (DCA) in the presence of biphenyl and the X-Y donor, as described above, results in the formation of the DCA^.cndot.- and the X-Y^.cndot.+. By using a concentration of X-Y of ca. 10^-2 M, the X-Y^.cndot.+ can be formed within ca. 20 ns of the laser pulse. […] The monitoring wavelengths used were somewhat different for the different donors, but were mostly around 470-530 nm. […] Alternatively, when the decay rate of the X-Y^.cndot.+ was less than 10^6 s^-1, the solutions were purged with oxygen.
The experiments measuring the fragmentation rate constants were performed in acetonitrile with the addition of 20% water, so that all of the salts could be easily solubilized. Most experiments were performed at room temperature. […] When this happened, the fragmentation rate constants were measured as a function of temperature, and the rate constant at room temperature determined by extrapolation.

[2] = oxidation potential E2 of radical X by laser flash photolysis; details: Table C; by parent XY compound; < = more negative than
Description: In this technique, the compound X-Y is oxidized by an electron transfer reaction initiated by a short laser pulse. The oxidized form of X-Y then undergoes the bond cleavage reaction to give the radical X^.cndot.. X^.cndot. is then allowed to interact with various electron acceptor compounds of known reduction potential. […] The experimental details are set forth more fully below. The oxidation potentials (E2) for radicals X^.cndot. for typical compounds useful in accordance with our invention are given in Table C. Where only limits on potentials could be determined, the following notation is used: <-0.90 V should be read as "more negative than -0.90 V" and >-0.40 V should be read as "less negative than -0.40 V".
(a) Oxidation Potential of Radical X.cndot.
The laser flash photolysis measurements were performed using a nanosecond pulsed excimer (Questek model 2620, 308 nm, ca. 20 ns, ca. 100 mJ) pumped dye laser (Lambda Physik model FL 3002). The laser dye was DPS (commercially available from Exciton Co.) in p-dioxane (410 nm, ca. 20 ns, ca. 10 mJ). The analyzing light source was a pulsed 150W xenon arc lamp (Osram XBO 150/W). The arc lamp power supply was a PRA model 302 and the pulser was a PRA model M-306. The pulser increased the light output by ca. 100 fold, for a time period of ca. 2-3 ms. The analyzing light was focussed through a small aperture (ca. 1.5 mm) in a cell holder designed to hold 1 cm^2 cuvettes. The laser and analyzing beams irradiated the cell from opposite directions and crossed at a narrow angle (ca. 15°). After leaving the cell, the analyzing light was collimated and focussed onto the slit (1 mm, 4 nm bandpass) of an ISA H-20 monochromator. The light was detected using 5 dynodes of a Hamamatsu model R446 photomultiplier. The output of the photomultiplier tube was terminated into 50 ohm, and captured using a Tektronix DSA-602 digital oscilloscope. The entire experiment is controlled from a personal computer.
The experiments were performed either in acetonitrile, or a mixture of 80% acetonitrile and 20% water. The first singlet excited state of a cyanoanthracene (A), which acted as the electron acceptor, was produced using the nanosecond laser pulse at 410 nm. […] Secondary electron transfer then occurred between B^.cndot.+ and the lower oxidation potential electron donor X-Y, to generate X-Y^.cndot.+ in high yield. For the investigations of the oxidation potentials of the radicals X^.cndot., typically the cyanoanthrancene concentration was ca. 2×10^-5 M to 10^-4 M the biphenyl concentration was ca. 0.1M. The concentration of the X-Y donor was ca. 10^-3 M. The rates of the electron transfer reactions are determined by the concentrations of the substrates. The concentrations used ensured that the A^.cndot.- and the X-Y^.cndot.+ were generated within 100 ns of the laser pulse. The radical ions could be observed directly by means of their visible absorption spectra. The kinetics of the photogenerated radical ions were monitored by observation of the changes in optical density at the appropriate wavelengths.
The reduction potential (Ered) of 9,10-dicyanoanthracene (DCA) is -0.91 V. In a typical experiment, DCA is excited and the initial photo-induced electron transfer from the biphenyl (B) to the DCA forms a DCA^.cndot.-, which is observed at its characteristic absorption maximum (λobs =705 nm), within ca. 20 ns of the laser pulse. Rapid secondary electron transfer occurs from X-Y to B^.cndot.+ to generate X-Y^.cndot.+, which fragments to give X^.cndot.. A growth in absorption is then observed at 705 nm with a time constant of ca. 1 microsecond, due to reduction of a second DCA by the X^.cndot.. The absorption signal with the microsecond growth time is equal to the size of the absorption signal formed within 20 ns.
If the oxidation potential of X^.cndot. is not sufficiently negative to reduce DCA, an estimate of its oxidation potential was obtained by using other cyanoanthracenes as acceptors. […]

[3] = oxidation potential E1 by cyclic voltammetry; details: Table A; 80%/20% acetonitrile/water, 0.1M lithium perchlorate, 25° C.
Protocol: Oxidation potentials are well known and can be found, for example, in "Encyclopedia of Electrochemistry of the Elements", Organic Section, Volumes XI-XV, A. Bard and H. Lund (Editors) Marcel Dekker Inc., NY. (1984). E1 can be measured by the technique of cyclic voltammetry. In this technique, the electron donating compound is dissolved in a solution of 80%/20% by volume acetonitrile to water containing 0.1M lithium perchlorate. Oxygen is removed from the solution by passing nitrogen gas through the solution for 10 minutes prior to measurement. A glassy carbon disk is used for the working electrode, a platinum wire is used for the counter electrode, and a saturated calomel electrode (SCE) is used for the reference electrode. Measurement is conducted at 25° C. using a potential sweep rate of 0.1 V/sec. The oxidation potential vs. SCE is taken as the peak potential of the cyclic voltammetric wave.

| SMILES | kfr, Rate Constants for Decarboxylation of Radical Cations [1] | Oxidation Potentials of Radicals (X*), E2 [2] | Oxidation Potential of X--Y, E1 [3] |
| --- | --- | --- | --- |
| CN(C)c1ccc(CC(=O)O)cc1 [Compound 1] | ~ 3.0 × 10^5 s^-1 | > -0.5 V | 0.53 V vs SCE |
| CCN(CC)c1ccc(C(O)C(=O)O)cc1 (centres unmarked) [Compound 2] | – | < -0.9 V | 0.50 V vs SCE |
| CN(C)c1ccc(C(O)C(=O)O)cc1 (centres unmarked) [Compound 3] | 550000 s⁻¹ | – | – |
| CCN(CC)c1ccc(C(C)(O)C(=O)O)cc1 (centres unmarked) [Compound 4] | – | – | 0.49 V vs SCE |
| CN(C)c1ccc(C(C)(O)C(=O)O)cc1 (centres unmarked) [Compound 5] | – | < -0.9 V | 0.51 V vs SCE |
| O=C(O)COc1ccc(N(CC(=O)O)CC(=O)O)cc1 [Compound 9] | – | – | 0.38 V vs SCE |
| COc1ccc(N(CC(=O)O)CC(=O)O)cc1 [Compound 10] | 9300 s⁻¹ | < -0.9 V | 0.38 V vs SCE |
| Cc1ccc(N(CC(=O)O)CC(=O)O)cc1 [Compound 11] | 1.6e+06 s⁻¹ | ~ -0.9 V | 0.46 V vs SCE |
| O=C(O)CN(CC(=O)O)c1ccc(Cl)cc1 [Compound 12] | – | – | 0.58 V vs SCE |
| O=C(O)CN(CC(=O)O)c1ccccc1 [Compound 13] | 1.7e+07 s⁻¹ | ~ -0.85 V | 0.54 V vs SCE |
| CCC(C)c1ccc(N(CC(=O)O)C(C)C(=O)O)cc1 (centres unmarked) [Compound 16] | – | ~ -0.9 V | 0.47 V vs SCE |
| CC(C(=O)O)N(CC(=O)O)c1ccc(C=O)cc1 (centres unmarked) [Compound 17] | – | – | 0.74 V vs SCE |
| CC(C(=O)O)N(CC(=O)O)c1ccc(S(=O)(=O)O)cc1 (centres unmarked) [Compound 18] | – | – | 0.70 V vs SCE |
| CCN(CC)S(=O)(=O)c1ccc(N(CC(=O)O)C(C)C(=O)O)cc1 (centres unmarked) [Compound 19] | – | – | 0.68 V vs SCE |
| COc1ccc(N(CC(=O)O)CC(=O)O)cc1OC [Compound 21] | 1000 s⁻¹ | – | 0.36 V vs SCE |
| O=C(O)COc1ccccc1N(CC(=O)O)CC(=O)O [Compound 22] | – | – | 0.65 V vs SCE |
| COc1ccc(NC(C)C(=O)O)cc1 (centres unmarked) [Compound 23] | – | – | 0.37 V vs SCE |
| CC(Nc1ccccc1)C(=O)O (centres unmarked) [Compound 24] | – | – | 0.52 V vs SCE |
| CC(Nc1ccc(C(=O)O)cc1)C(=O)O (centres unmarked) [Compound 25] | – | – | 0.62 V vs SCE |
| CC(Nc1ccc(Cl)cc1)C(=O)O (centres unmarked) [Compound 26] | – | – | 0.51 V vs SCE |
| CC(Nc1ccc(C(N)=O)cc1)C(=O)O (centres unmarked) [Compound 27] | – | – | 0.62 V vs SCE |
| CCOC(=O)c1ccc(NC(C)C(=O)O)cc1 (centres unmarked) [Compound 28] | – | – | 0.61 V vs SCE |
| O=C(O)CC(Nc1ccccc1)C(=O)O (centres unmarked) [Compound 30] | – | – | 0.60 V vs SCE |

| SMILES | kfr, Rate Constants for Decarboxylation of Radical Cations [1] | Oxidation Potentials of Radicals (X*), E2 [2] | Oxidation Potential of X--Y, E1 [3] |
| --- | --- | --- | --- |
| O=C(O)CC(Nc1ccc(C(=O)O)cc1)C(=O)O (centres unmarked) [Compound 31] | – | – | 0.61 V vs SCE |
| CC(Nc1cccc(C(N)=O)c1)C(=O)O (centres unmarked) [Compound 32] | – | – | 0.58 V vs SCE |
| CC(C(=O)O)N(C)c1ccc(C(=O)O)cc1 (centres unmarked) [Compound 33] | – | < -0.9 V | 0.54 V vs SCE |
| CCN(c1cccc(C(N)=O)c1)C(C)C(=O)O (centres unmarked) [Compound 34] | – | – | 0.52 V vs SCE |
| CCCCN(c1ccc(C)cc1)C(C)C(=O)O (centres unmarked) [Compound 35] | – | – | 0.34 V vs SCE |
| CCCCN(c1ccccc1)C(C)C(=O)O (centres unmarked) [Compound 37] | – | – | 0.43 V vs SCE |
| CCCCN(c1ccc(C(=O)O)cc1)C(C)C(=O)O (centres unmarked) [Compound 38] | – | – | 0.48 V vs SCE |
| CCCCN(c1ccc(Cl)cc1)C(C)C(=O)O (centres unmarked) [Compound 39] | – | – | 0.40 V vs SCE |
| CCCCN(c1ccc(C)cc1)C(CC(=O)O)C(=O)O (centres unmarked) [Compound 40] | 1.3e+07 s⁻¹ | – | 0.38 V vs SCE |
| CCCCN(c1ccccc1)C(CC(=O)O)C(=O)O (centres unmarked) [Compound 41] | – | – | 0.48 V vs SCE |
| Cc1ccc(N(CCC(=O)O)C[Si](C)(C)C)cc1 [Compound 42] | – | ~ -0.9 V | 0.30 V vs SCE |
| Cn1cc(C(O)C(=O)O)c2ccccc21 (centres unmarked) [Compound 43] | – | -0.89 V | 0.61 V vs SCE |
| CC(C(=O)O)c1cn(C)c2ccccc12 (centres unmarked) [Compound 45] | – | -0.56 V | 0.64 V vs SCE |
| Cn1cc(CC(=O)O)c2ccccc21 [Compound 46] | – | ~ -0.34 V | 0.68 V vs SCE |
| CC1CC(C)(C)N(CC(=O)O)c2ccccc21 (centres unmarked) [Compound 47] | > 10^7 s^-1 | ~ -0.9 V | – |
| COc1cc(OC)c(C(O)C(=O)O)cc1OC (centres unmarked) [Compound 48] | – | < -0.9 V | 0.70 V vs SCE |
| O=C(O)C(O)c1ccccc1 (centres unmarked) [Compound 49] | – | -0.75 V | ~ 1.2 V vs SCE |
| COc1ccc(C(O)C(=O)O)cc1 (centres unmarked) [Compound 50] | – | < -0.9 V | ~ 1.05 V vs SCE |
| COc1ccc(C(O)C(=O)O)cc1OC (centres unmarked) [Compound 51] | – | < -0.9 V | 0.91 V vs SCE |
| CC(C(=O)O)N(c1ccccc1)c1ccccc1 (centres unmarked) [Compound 58] | – | – | 0.49 V vs SCE |
| CC(C)(Nc1ccccc1)C(=O)O [Compound 59] | – | – | 0.53 V vs SCE |
| Nc1nc(C(O)C(=O)O)cs1 (centres unmarked) [Compound 60] | – | – | 0.80 V vs SCE |
